Laboratory results from BindingDB's records for doi:10.1016/s0960-894x(02)00934-4 (Southern Research Institute, 2003).

Test: Antagonist activity on agonist stimulated [35S]GTP-gamma-S, binding in guinea pig caudate membranes (10 uM SNC-80 as the agonist ligand for delta-receptor)

SMILES	Ki
Oc1ccc2c3c1O[C@H]1c4ncc(-n5cccc5)cc4C[C@@]4(O)[C@@H](C2)N(CC2CC2)CC[C@]314 [19-cyclopropylmethyl-6-(1H-1-pyrrolyl)-11-oxa-8,19-diazahexacyclo[10.9.1.01,10.02,18.04,9.016,22]docosa-4(9),5,7,12,14,16(22)-hexaene-2,13-diol]	0.4 nM
NC(N)=Nc1cnc2c(c1)C[C@@]1(O)[C@H]3Cc4ccc(O)c5c4[C@@]1(CCN3CC1CC1)[C@H]2O5 [6-amino(imino)methylamino-19-cyclopropylmethyl-11-oxa-8,19-diazahexacyclo[10.9.1.01,10.02,18.04,9.016,22]docosa-4(9),5,7,12,14,16(22)-hexaene-2,13-diol; ditrifluoracetic acid]	6.5 nM
